17 compounds from PubChem BioAssay AID192 (DTP/NCI, 2004) can be followed below.

This test relates to BDF1 mice, B16 melanoma ip, median survival T/C. The test can be described thus: NCI In Vivo Anticancer Drug Screen. Data for tumor model B16 Melanoma (intraperitoneal) in B6D2F1 (BDF1) mice. As to conditions: endpoint: median survival time, higher = longer survival. An outline of the steps: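 Read-out: survival or tumor size, given as treated/control ratio. Controls received vehicle only; animals bore transplantable tumors.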

The mark [1] stands for this setting: dose: 3.12 mg/kg/injection, schedule: Q01DX009 (ip), vehicle: saline.
Setting [2] is: dose: 6.25 mg/kg/injection, schedule: Q01DX009 (ip), vehicle: saline.
The mark [3] stands for this setting: dose: 25.0 mg/kg/injection, schedule: Q04DX003 (ip), vehicle: Klucel (hydroxypropylcellulose) (HPC).
Setting [4] is: dose: 50.0 mg/kg/injection, schedule: Q04DX003 (ip), vehicle: Klucel (hydroxypropylcellulose) (HPC).
Setting [5] is: dose: 100.0 mg/kg/injection, schedule: Q01DX009 (ip), vehicle: Klucel (hydroxypropylcellulose) (HPC).
Setting [6] is: dose: 200.0 mg/kg/injection, schedule: Q01DX009 (ip), vehicle: Klucel (hydroxypropylcellulose) (HPC).
The mark [7] stands for this setting: dose: 200.0 mg/kg/injection, schedule: Q04DX003 (ip), vehicle: Klucel (hydroxypropylcellulose) (HPC).
[8] abbreviates: dose: 400.0 mg/kg/injection, schedule: Q01DX009 (ip), vehicle: Klucel (hydroxypropylcellulose) (HPC).
Where [9] appears, read: dose: 3.12 mg/kg/injection, schedule: Q01DX009 (ip), vehicle: suspension in saline.
[10] abbreviates: dose: 6.25 mg/kg/injection, schedule: Q01DX009 (ip), vehicle: suspension in saline.
The mark [11] stands for this setting: dose: 25.0 mg/kg/injection, schedule: Q01DX009 (ip), vehicle: water.
[12] abbreviates: dose: 100.0 mg/kg/injection, schedule: Q04DX003 (ip), vehicle: Klucel (hydroxypropylcellulose) (HPC).

Where “and” joins values, the source holds several entries; their conditions need not be identical. Equal values may be shown once. Toxic doses and inconclusive results are not listed.

With `CC(=O)Oc1cc2c3c(c1)CCCN3CCC2`, the T/C runs as follows: (dose: 3.13 mg/kg/injection, schedule: Q01DX009 (ip), vehicle: saline with Tween-80) 90 % of control; (dose: 6.25 mg/kg/injection, schedule: Q01DX009 (ip), vehicle: saline with Tween-80) 90 % of control; (dose: 15.0 micrograms/kg/injection, schedule: Q01DX009 (ip), vehicle: saline) 104 % of control; (dose: 30.0 micrograms/kg/injection, schedule: Q01DX009 (ip), vehicle: saline) 97 % of control; (dose: 60.0 micrograms/kg/injection, schedule: Q01DX009 (ip), vehicle: saline) 93 % of control; (dose: 250.0 micrograms/kg/injection, schedule: Q01DX009 (ip), vehicle: saline with Tween-80) 86 % of control. The T/C (dose: 500.0 micrograms/kg/injection, schedule: Q01DX009 (ip), vehicle: saline with Tween-80) was 86 % of control.

In the case of `CCOC(=O)C(C(=O)OCC)c1cc(NC(=O)c2ccccc2)ccc1NC(=O)c1ccccc1`, the T/C (dose: 100.0 mg/kg/injection, schedule: Q01DX009 (ip), vehicle: saline with Tween-80) was 95 % of control; the T/C (dose: 200.0 mg/kg/injection, schedule: Q01DX009 (ip), vehicle: saline with Tween-80) is 91 % of control; the T/C (dose: 400.0 mg/kg/injection, schedule: Q01DX009 (ip), vehicle: saline with Tween-80) was 89 % of control.

With `CC1(C)N=C(N)N=C(N)N1c1ccc(F)c(C(F)(F)F)c1`, the T/C under setting [1] is 96 % of control; the T/C under setting [2] is 118 % of control; the T/C (dose: 12.0 mg/kg/injection, schedule: Q01DX009 (ip), vehicle: saline) was 120 % of control.

Turning to `CC(Cl)CN(CC(C)Cl)C(=O)OCC(NC(=O)OCc1ccccc1)C(=O)OCc1ccccc1` (stereo unspecified), the T/C is, setting by setting: (dose: 12.5 mg/kg/injection, schedule: Q04DX003 (ip), vehicle: Klucel (hydroxypropylcellulose) (HPC)) 86 % of control; under setting [3], 86 % of control; under setting [4], 86 % of control; under setting [5], 97 % of control; under setting [6], 97 % of control; under setting [7], 93 % of control. Also, the T/C under setting [8] is 88 % of control.

Regarding `Cn1c(=O)c2[nH]c(Cc3cccc(O)c3)nc2n(C)c1=O`, the T/C runs as follows: under setting [9], 94 % of control; under setting [10], 96 % of control; (dose: 100.0 mg/kg/injection, schedule: Q01DX009 (ip), vehicle: suspension in saline) 94 % of control.

For `CCN(CC)CCCC(C)NCCCCNC(C)CCCN(CC)CC` (stereo unspecified), the T/C reads like this: (dose: 4.69 mg/kg/injection, schedule: Q01DX009 (ip), vehicle: alcohol) 96 % of control; (dose: 6.25 mg/kg/injection, schedule: Q01DX009 (ip), vehicle: alcohol) 115 % of control; (dose: 9.38 mg/kg/injection, schedule: Q01DX009 (ip), vehicle: alcohol) 104 % of control; (dose: 11.0 mg/kg/injection, schedule: Q01DX009 (ip), vehicle: water) 122 % of control; (dose: 12.5 mg/kg/injection, schedule: Q01DX009 (ip), vehicle: alcohol) 88 % of control; (dose: 16.5 mg/kg/injection, schedule: Q01DX009 (ip), vehicle: water) 94 % of control. Moreover, under setting [11], the T/C is 87 % of control and 224 % of control.

For `COC1=C2CC(C)CC(OC)C(O)C(C)/C=C(\C)C(OC(N)=O)C(OC)/C=C\C=C(/C)C(=O)NC(=C(/C=N/N3CCCCC3)C1=O)C2=O` (stereo unspecified), the T/C was 101 % of control (dose: 12.5 mg/kg/injection, schedule: Q01DX005 (ip), vehicle: other); 98 % of control (dose: 25.0 mg/kg/injection, schedule: Q01DX005 (ip), vehicle: other); 97 % of control (dose: 50.0 mg/kg/injection, schedule: Q01DX005 (ip), vehicle: other); 88 % of control (dose: 100.0 mg/kg/injection, schedule: Q01DX005 (ip), vehicle: other); 97 % of control (dose: 200.0 mg/kg/injection, schedule: Q01DX005 (ip), vehicle: other).

Take `NC1=NCN(C2OC(CO)C(O)C2O)C(=O)N1` (stereo unspecified): the T/C is, setting by setting: (dose: 1.56 mg/kg/injection, schedule: Q01DX009 (ip), vehicle: saline) 92 % of control and 110 % of control; under setting [1], 96 % of control; under setting [9], 93 % of control; under setting [2], 94 % of control and 110 % of control; under setting [10], 110 % of control; (dose: 12.5 mg/kg/injection, schedule: Q01DX009 (ip), vehicle: saline) 110 % of control. Besides, the T/C reads like this: (dose: 12.5 mg/kg/injection, schedule: Q01DX009 (ip), vehicle: suspension in saline) 110 % of control; (dose: 25.0 mg/kg/injection, schedule: Q01DX009 (ip), vehicle: saline) 94 % of control and 111 % of control; (dose: 25.0 mg/kg/injection, schedule: Q01DX009 (ip), vehicle: suspension in saline) 89 % of control; (dose: 50.0 mg/kg/injection, schedule: Q01DX009 (ip), vehicle: saline) 111 % of control; (dose: 200.0 mg/kg/injection, schedule: Q01DX009 (ip), vehicle: saline) 111 % of control and 119 % of control.

Turning to `Cc1ccc(S(=O)(=O)N2CCCC(=O)c3ccc(Cl)cc32)cc1`, the T/C runs as follows: under setting [12], 103 % of control; under setting [7], 99 % of control; (dose: 400.0 mg/kg/injection, schedule: Q04DX003 (ip), vehicle: Klucel (hydroxypropylcellulose) (HPC)) 99 % of control.

Turning to `CC(Br)C(=O)NC(C)C(=O)O` (stereo unspecified), the T/C was 93 % of control (dose: 12.5 mg/kg/injection, schedule: Q01DX009 (ip), vehicle: saline with Tween-80); 89 % of control (dose: 25.0 mg/kg/injection, schedule: Q01DX009 (ip), vehicle: saline with Tween-80); 90 % of control (dose: 50.0 mg/kg/injection, schedule: Q01DX009 (ip), vehicle: saline with Tween-80).

`c1ccc(C2c3ccccc3C(c3ccccc3)(c3ccccc3)c3ccccc32)cc1`: the T/C is 87 % of control (dose: 12.5 mg/kg/injection, schedule: Q01DX009 (ip), vehicle: Klucel (hydroxypropylcellulose) (HPC)); 101 % of control (dose: 25.0 mg/kg/injection, schedule: Q01DX009 (ip), vehicle: Klucel (hydroxypropylcellulose) (HPC)); 97 % of control (dose: 50.0 mg/kg/injection, schedule: Q01DX009 (ip), vehicle: Klucel (hydroxypropylcellulose) (HPC)); 86 % of control under setting [5].

With `O=C(NCCCCCCNC(=O)N1CC1)N1CC1`, the T/C was 101 % of control (dose: 0.3 mg/kg/injection, schedule: Q01DX009 (ip), vehicle: saline); 96 % of control (dose: 0.6 mg/kg/injection, schedule: Q01DX009 (ip), vehicle: saline); 103 % of control (dose: 1.2 mg/kg/injection, schedule: Q01DX009 (ip), vehicle: saline); 92 % of control (dose: 2.4 mg/kg/injection, schedule: Q01DX009 (ip), vehicle: saline); 103 % of control (dose: 4.8 mg/kg/injection, schedule: Q01DX009 (ip), vehicle: saline).

With `O=C(N/N=C/c1ccc(N(CCCl)CCCl)cc1)c1ccc(C(=O)N/N=C/c2ccc(N(CCCl)CCCl)cc2)cc1`, the T/C runs as follows: under setting [3], 97 % of control; under setting [4], 90 % of control and 100 % of control; under setting [12], 97 % of control; under setting [7], 90 % of control and 95 % of control.

As for `COc1cc(N)c2c(c1N)C(=O)c1ccccc1C2=O`, the T/C runs as follows: under setting [4], 100 % of control; under setting [12], 103 % of control; under setting [7], 95 % of control.

Turning to `COc1cccc(C(=O)c2ccncc2C)c1OC`, the T/C was 98 % of control under setting [11]; 96 % of control (dose: 50.0 mg/kg/injection, schedule: Q01DX009 (ip), vehicle: water); 96 % of control (dose: 100.0 mg/kg/injection, schedule: Q01DX009 (ip), vehicle: water).

Turning to `Cc1c[n+]2c3ccccc3c3ccccc3c2s1`, the T/C (dose: 10.0 mg/kg/injection, schedule: Q01DX009 (ip), vehicle: saline) is 105 % of control and the T/C (dose: 20.0 mg/kg/injection, schedule: Q01DX009 (ip), vehicle: saline) is 105 % of control.

Take `COc1ccc(CSCC(NC(=O)OC(C)(C)C)C(=O)O)cc1` (stereo unspecified): the T/C runs as follows: under setting [5], 110 % of control; under setting [6], 97 % of control; under setting [8], 95 % of control.
